The source of these data is PubChem BioAssay AID248 (DTP/NCI, 2004).

This test relates to L1210 leukemia ip in BDF1 mice, survival T/C. Kind of test: NCI In Vivo Anticancer Drug Screen. Data for tumor model L1210 Leukemia (intraperitoneal) in B6D2F1 (BDF1) mice. To be noted: endpoint: mean survival time, higher = longer survival. The method in brief: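 Each compound was tested against a transplantable tumor grown in mice. The endpoint was survival, with treated animals benchmarked against vehicle controls as a simple ratio.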

Where [1] appears, read: dose: 50.0 mg/kg/injection, schedule: Q01DX001 (ip), vehicle: carboxymethylcellulose (CMC).
Setting [2] is: dose: 100.0 mg/kg/injection, schedule: Q01DX001 (ip), vehicle: carboxymethylcellulose (CMC).
Setting [3] is: dose: 200.0 mg/kg/injection, schedule: Q01DX001 (ip), vehicle: carboxymethylcellulose (CMC).
Where [4] appears, read: dose: 400.0 mg/kg/injection, schedule: Q01DX001 (ip), vehicle: carboxymethylcellulose (CMC).
The mark [5] stands for this setting: dose: 100.0 mg/kg/injection, schedule: Q04DX003 (ip), vehicle: saline with Tween-80.
[6] abbreviates: dose: 100.0 mg/kg/injection, schedule: Q01DX009 (ip), vehicle: Klucel (hydroxypropylcellulose) (HPC).
[7] abbreviates: dose: 100.0 mg/kg/injection, schedule: Q04DX002 (ip), vehicle: Klucel (hydroxypropylcellulose) (HPC).
Where [8] appears, read: dose: 200.0 mg/kg/injection, schedule: Q01DX009 (ip), vehicle: Klucel (hydroxypropylcellulose) (HPC).
Setting [9] is: dose: 100.0 mg/kg/injection, schedule: Q04DX003 (ip), vehicle: Klucel (hydroxypropylcellulose) (HPC).
Setting [10] is: dose: 200.0 mg/kg/injection, schedule: Q04DX003 (ip), vehicle: Klucel (hydroxypropylcellulose) (HPC).
Where [11] appears, read: dose: 400.0 mg/kg/injection, schedule: Q04DX003 (ip), vehicle: Klucel (hydroxypropylcellulose) (HPC).
The mark [12] stands for this setting: dose: 100.0 mg/kg/injection, schedule: Q01DX001 (ip), vehicle: Klucel (hydroxypropylcellulose) (HPC).
The mark [13] stands for this setting: dose: 200.0 mg/kg/injection, schedule: Q01DX001 (ip), vehicle: Klucel (hydroxypropylcellulose) (HPC).

“And” between values parts separate entries of the source, which are not always exact repeats. Equal entries are not always repeated. Inconclusive results and toxic doses are left out.

Turning to `Cc1c2c(cc3c1[nH]c1ccccc13)C(C)N(C)CC2` (stereo not drawn), the T/C runs as follows: (dose: 14.6 mg/kg/injection, schedule: Q01DX Z (ip), vehicle: saline) 110 % of control; (dose: 22.0 mg/kg/injection, schedule: Q01DX Z (ip), vehicle: saline) 111 % of control; (dose: 32.5 mg/kg/injection, schedule: Q01DX015 (ip), vehicle: carboxymethylcellulose (CMC)) 107 % of control; (dose: 33.0 mg/kg/injection, schedule: Q01DX Z (ip), vehicle: saline) 113 % of control; under setting [1], 109 % of control; (dose: 50.0 mg/kg/injection, schedule: Q01DX Z (ip), vehicle: saline) 119 % of control. The T/C by setting is: (dose: 75.0 mg/kg/injection, schedule: Q01DX015 (ip), vehicle: carboxymethylcellulose (CMC)) 108 % of control; under setting [2], 109 % of control; (dose: 150.0 mg/kg/injection, schedule: Q01DX015 (ip), vehicle: carboxymethylcellulose (CMC)) 118 % of control; (dose: 150.0 mg/kg/injection, schedule: Q01DX Z (ip), vehicle: saline) 166 % of control; under setting [3], 106 % of control; (dose: 200.0 mg/kg/injection, schedule: Q01DX Z (ip), vehicle: carboxymethylcellulose (CMC)) 100 % of control. Besides, the T/C (dose: 300.0 mg/kg/injection, schedule: Q01DX015 (ip), vehicle: carboxymethylcellulose (CMC)) is 118 % of control; the T/C (dose: 300.0 mg/kg/injection, schedule: Q01DX Z (ip), vehicle: carboxymethylcellulose (CMC)) was 107 % of control; the T/C under setting [4] was 98 % of control; the T/C (dose: 750.0 mg/kg/injection, schedule: Q01DX001 (ip), vehicle: carboxymethylcellulose (CMC)) is 110 % of control; the T/C (dose: 1500.0 mg/kg/injection, schedule: Q01DX001 (ip), vehicle: carboxymethylcellulose (CMC)) is 114 % of control.
As to `O=c1cc(CCl)[nH]nc1CCl`, the T/C (dose: 6.0 mg/kg/injection, schedule: Q04DX003 (ip), vehicle: saline with Tween-80) was 110 % of control; the T/C (dose: 9.5 mg/kg/injection, schedule: Q04DX003 (ip), vehicle: saline with Tween-80) is 110 % of control; the T/C (dose: 14.5 mg/kg/injection, schedule: Q04DX003 (ip), vehicle: saline with Tween-80) is 117 % of control; the T/C (dose: 22.0 mg/kg/injection, schedule: Q04DX003 (ip), vehicle: saline with Tween-80) is 115 % of control and 124 % of control; the T/C (dose: 25.0 mg/kg/injection, schedule: Q04DX003 (ip), vehicle: saline with Tween-80) was 115 % of control; the T/C (dose: 33.0 mg/kg/injection, schedule: Q04DX003 (ip), vehicle: saline with Tween-80) is 124 % of control. Besides, the T/C is 113 % of control (dose: 75.0 mg/kg/injection, schedule: Q04DX003 (ip), vehicle: saline with Tween-80) and 111 % of control under setting [5].
Consider `O=C1NNC(c2ccccc2)C1c1ccccc1` (stereo not drawn), for which the T/C is 93 % of control under setting [2], 95 % of control under setting [3] and 97 % of control under setting [4].
In the case of `CCN(C1CCCCC1)C1CCCCC1`, the T/C runs as follows: (dose: 25.0 mg/kg/injection, schedule: Q01DX009 (ip), vehicle: saline) 100 % of control; (dose: 50.0 mg/kg/injection, schedule: Q01DX009 (ip), vehicle: saline) 98 % of control; (dose: 100.0 mg/kg/injection, schedule: Q01DX009 (ip), vehicle: saline) 107 % of control.
`CCCCCCCCCCCCNC(C)=O`: the T/C reads like this: (dose: 100.0 mg/kg/injection, schedule: Q01DX005 (ip), vehicle: Klucel (hydroxypropylcellulose) (HPC)) 97 % of control; under setting [6], 105 % of control; under setting [7], 98 % of control; under setting [5], 97 % of control; (dose: 200.0 mg/kg/injection, schedule: Q01DX005 (ip), vehicle: Klucel (hydroxypropylcellulose) (HPC)) 94 % of control; under setting [8], 99 % of control. Also, the T/C is, setting by setting: (dose: 200.0 mg/kg/injection, schedule: Q04DX002 (ip), vehicle: Klucel (hydroxypropylcellulose) (HPC)) 91 % of control; (dose: 200.0 mg/kg/injection, schedule: Q04DX003 (ip), vehicle: saline with Tween-80) 98 % of control; (dose: 400.0 mg/kg/injection, schedule: Q01DX005 (ip), vehicle: Klucel (hydroxypropylcellulose) (HPC)) 102 % of control; (dose: 400.0 mg/kg/injection, schedule: Q04DX002 (ip), vehicle: Klucel (hydroxypropylcellulose) (HPC)) 106 % of control; (dose: 400.0 mg/kg/injection, schedule: Q04DX003 (ip), vehicle: saline with Tween-80) 90 % of control.
As for `O=C(O)CNS(=O)(=O)CCN1C(=O)c2ccccc2C1=O`, the T/C is 96 % of control under setting [9], 92 % of control under setting [10] and 96 % of control under setting [11].
As for `CN(C)c1ccc2c(c1)Cc1cc(NC(N)=O)ccc1-2`, the T/C under setting [2] is 115 % of control, the T/C under setting [3] is 96 % of control and the T/C under setting [4] was 91 % of control.
With `Cc1cccc(NC(=O)CSc2cc(Cl)c(Cl)cc2Cl)c1`, the T/C is, setting by setting: (dose: 100.0 mg/kg/injection, schedule: Q01DX001 (ip), vehicle: saline with Tween-80) 93 % of control; (dose: 200.0 mg/kg/injection, schedule: Q01DX001 (ip), vehicle: saline with Tween-80) 90 % of control; (dose: 400.0 mg/kg/injection, schedule: Q01DX001 (ip), vehicle: saline with Tween-80) 87 % of control.
In the case of `O=[N+]([O-])c1ccc(S(=O)(=O)O)c([N+](=O)[O-])c1.[Ag]`, the T/C is 95 % of control (dose: 3.12 mg/kg/injection, schedule: Q01DX009 (ip), vehicle: DMSO); 97 % of control (dose: 6.25 mg/kg/injection, schedule: Q01DX009 (ip), vehicle: DMSO); 95 % of control (dose: 12.5 mg/kg/injection, schedule: Q01DX009 (ip), vehicle: DMSO); 93 % of control (dose: 12.5 mg/kg/injection, schedule: Q01DX009 (ip), vehicle: other); 104 % of control (dose: 12.5 mg/kg/injection, schedule: Q04DX003 (ip), vehicle: other); 98 % of control (dose: 25.0 mg/kg/injection, schedule: Q04DX003 (ip), vehicle: other). Moreover, where the note is “dose: 50.0 mg/kg/injection, schedule: Q04DX003 (ip), vehicle: other”, the T/C is 103 % of control.
On to `Nc1ccc(C(=O)NC(CCC(=O)O)C(=O)O)cc1` (stereo not drawn), for which the T/C is, setting by setting: (dose: 100.0 mg/kg/injection, schedule: Q04DX002 (ip), vehicle: saline with Tween-80) 92 % of control; (dose: 200.0 mg/kg/injection, schedule: Q04DX002 (ip), vehicle: saline with Tween-80) 95 % of control; (dose: 400.0 mg/kg/injection, schedule: Q04DX002 (ip), vehicle: saline with Tween-80) 92 % of control.
Regarding `S=P(=Nc1ccccc1)c1ccccc1` (stereo not drawn), the T/C reads like this: under setting [12], 91 % of control; under setting [13], 89 % of control; (dose: 400.0 mg/kg/injection, schedule: Q01DX001 (ip), vehicle: Klucel (hydroxypropylcellulose) (HPC)) 88 % of control.
Take `NC(=S)N/N=C1\C=CCCC1`: under setting [1], the T/C was 111 % of control.
Consider `CC(=O)N(C)c1ccc(NC(=O)Nc2cc([N+](=O)[O-])ccc2F)cc1`, for which the T/C is 91 % of control under setting [9], 97 % of control under setting [10] and 92 % of control under setting [11].
Take `CC1=NN=S(CC2=C(C(=O)O)N3C(=O)C(NC(=O)C[n+]4cc(=O)o[nH]4)C3SC2)S1` (stereo not drawn): the T/C by setting is: (dose: 50.0 mg/kg/injection, schedule: Q04DX002 (ip), vehicle: saline) 118 % of control; (dose: 100.0 mg/kg/injection, schedule: Q04DX002 (ip), vehicle: saline) 103 % of control; (dose: 200.0 mg/kg/injection, schedule: Q04DX002 (ip), vehicle: saline) 114 % of control.
As for `Nc1cccc(NC(=O)Nc2ccccc2)c1`, the T/C was 105 % of control (dose: 50.0 mg/kg/injection, schedule: Q04DX002 (ip), vehicle: Klucel (hydroxypropylcellulose) (HPC)) and 91 % of control under setting [7].
With `Cc1ccc(C(=O)O)cc1-n1c(-c2ccc(Cl)cc2)nnc1-c1ccc(Br)cc1`, the T/C is 92 % of control (dose: 50.0 mg/kg/injection, schedule: Q01DX009 (ip), vehicle: Klucel (hydroxypropylcellulose) (HPC)); 97 % of control under setting [12]; 93 % of control under setting [6]; 96 % of control under setting [13]; 93 % of control under setting [8].
